According to PubChem BioAssay (NCI):
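These data come from cells grown in 96-well plates and exposed to compound for 48 hours at five concentrations. The concentration for full growth arrest is given as TGI.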

How the values were obtained:
Assay in all cases: DTP human tumour cell line panel, 48 h
786-0 renal = test system: 786-0 renal
A498 renal = test system: A498 renal
A549 NSCLC = test system: A549 NSCLC
ACHN renal = test system: ACHN renal
BT-549 breast = test system: BT-549 breast
CAKI-1 renal = test system: CAKI-1 renal
CCRF-CEM leukemia = test system: CCRF-CEM leukemia
COLO 205 colon = test system: COLO 205 colon
DU-145 prostate = test system: DU-145 prostate
EKVX NSCLC = test system: EKVX NSCLC
HCC-2998 colon = test system: HCC-2998 colon
HCT-116 colon = test system: HCT-116 colon
HCT-15 colon = test system: HCT-15 colon
HL-60(TB) leukemia = test system: HL-60(TB) leukemia
HOP-62 NSCLC = test system: HOP-62 NSCLC
HOP-92 NSCLC = test system: HOP-92 NSCLC
HS 578T breast = test system: HS 578T breast
HT29 colon = test system: HT29 colon
IGROV1 ovarian = test system: IGROV1 ovarian
K-562 leukemia = test system: K-562 leukemia
KM12 colon = test system: KM12 colon
LOX IMVI melanoma = test system: LOX IMVI melanoma
M14 melanoma = test system: M14 melanoma
MALME-3M melanoma = test system: MALME-3M melanoma
MCF7 breast = test system: MCF7 breast
MDA-MB-231 breast = test system: MDA-MB-231 breast
MDA-MB-435 = test system: MDA-MB-435
MDA-N = test system: MDA-N
MOLT-4 leukemia = test system: MOLT-4 leukemia
NCI-H226 lung = test system: NCI-H226 lung
NCI-H23 lung = test system: NCI-H23 lung
NCI-H460 lung = test system: NCI-H460 lung
NCI-H522 lung = test system: NCI-H522 lung
NCI/ADR-RES ovarian = test system: NCI/ADR-RES ovarian
OVCAR-3 ovarian = test system: OVCAR-3 ovarian
OVCAR-4 ovarian = test system: OVCAR-4 ovarian
OVCAR-5 ovarian = test system: OVCAR-5 ovarian
OVCAR-8 ovarian = test system: OVCAR-8 ovarian
PC-3 prostate = test system: PC-3 prostate
RPMI-8226 leukemia = test system: RPMI-8226 leukemia
RXF 393 renal = test system: RXF 393 renal
SF-268 CNS = test system: SF-268 CNS
SF-295 CNS = test system: SF-295 CNS
SF-539 CNS = test system: SF-539 CNS
SK-MEL-2 melanoma = test system: SK-MEL-2 melanoma
SK-MEL-28 melanoma = test system: SK-MEL-28 melanoma
SK-MEL-5 melanoma = test system: SK-MEL-5 melanoma
SK-OV-3 ovarian = test system: SK-OV-3 ovarian
SN12C renal = test system: SN12C renal
SNB-19 CNS = test system: SNB-19 CNS
SNB-75 CNS = test system: SNB-75 CNS
SR leukemia = test system: SR leukemia
SW-620 colon = test system: SW-620 colon
T-47D breast = test system: T-47D breast
TK-10 renal = test system: TK-10 renal
U251 CNS = test system: U251 CNS
UACC-257 melanoma = test system: UACC-257 melanoma
UACC-62 melanoma = test system: UACC-62 melanoma
UO-31 renal = test system: UO-31 renal

Compound Cc1ccc(-c2cc(-c3cc(-c4ccc(C)cc4C)n[nH]3)[nH]n2)c(C)c1 has a TGI (786-0 renal) of 26.2 µM, a TGI (A498 renal) of 34.1 µM and a TGI (A549 NSCLC) greater than 52.4 µM. It also gave a TGI (ACHN renal) of 24.4 µM, a TGI (BT-549 breast) of 42.7 µM and a TGI (CAKI-1 renal) of 36.2 µM. The TGI (CCRF-CEM leukemia) was 8.45 µM, the TGI (COLO 205 colon) was greater than 62 µM and the TGI (DU-145 prostate) was 33.1 µM. For the same compound, the TGI (EKVX NSCLC) was 46 µM, the TGI (HCC-2998 colon) was 28.9 µM and the TGI (HCT-116 colon) was 33 µM. For the same compound, the TGI (HCT-15 colon) was 44.8 µM, the TGI (HL-60(TB) leukemia) was 0.0792 µM and the TGI (HOP-62 NSCLC) was 30.2 µM. It also gave a TGI (HOP-92 NSCLC) of 39 µM, a TGI (HS 578T breast) of 44.6 µM and a TGI (HT29 colon) of 35.1 µM. It also gave a TGI (IGROV1 ovarian) of 28.6 µM, a TGI (K-562 leukemia) of 37.4 µM and a TGI (KM12 colon) of 49 µM. The TGI (LOX IMVI melanoma) was 38.4 µM, the TGI (M14 melanoma) was 40.3 µM and the TGI (MALME-3M melanoma) was 25 µM. The TGI (MCF7 breast) was 38.8 µM, the TGI (MDA-MB-231 breast) was 32.8 µM and the TGI (MDA-MB-435) was 31.1 µM. It also gave a TGI (MDA-N) of 34.1 µM, a TGI (MOLT-4 leukemia) of 36.8 µM and a TGI (NCI-H226 lung) of 42.9 µM. The TGI (NCI-H23 lung) was 41.9 µM, the TGI (NCI-H460 lung) was 21.4 µM and the TGI (NCI-H522 lung) was 30.3 µM. It also gave a TGI (NCI/ADR-RES ovarian) of 43 µM, a TGI (OVCAR-3 ovarian) of 26.9 µM and a TGI (OVCAR-4 ovarian) of 29.1 µM. It also gave a TGI (OVCAR-5 ovarian) of 59 µM, a TGI (OVCAR-8 ovarian) of 43.1 µM and a TGI (PC-3 prostate) of 29.2 µM. It also gave a TGI (RPMI-8226 leukemia) of 10.5 µM, a TGI (RXF 393 renal) of 32.7 µM and a TGI (SF-268 CNS) of 27.5 µM. It also gave a TGI (SF-295 CNS) of 26.5 µM, a TGI (SF-539 CNS) of 34 µM and a TGI (SK-MEL-2 melanoma) of 36.2 µM. It also gave a TGI (SK-MEL-28 melanoma) of 32.4 µM, a TGI (SK-MEL-5 melanoma) of 56.2 µM and a TGI (SK-OV-3 ovarian) of 29.4 µM. For the same compound, the TGI (SN12C renal) was 30.7 µM, the TGI (SNB-19 CNS) was 41.2 µM and the TGI (SNB-75 CNS) was 34.8 µM. The TGI (SR leukemia) was 26.5 µM, the TGI (SW-620 colon) was 33.1 µM and the TGI (T-47D breast) was greater than 74.4 µM. The TGI (TK-10 renal) was 29.4 µM, the TGI (U251 CNS) was 27.6 µM and the TGI (UACC-257 melanoma) was 26.7 µM. It also gave a TGI (UACC-62 melanoma) greater than 62 µM and a TGI (UO-31 renal) of 45.7 µM.

Compound Cc1ccc(S(=O)(=O)/N=C(\NO)Nc2ccc(Cl)c(Cl)c2)cc1 has a TGI (786-0 renal) of 16.2 µM, a TGI (A498 renal) of 23.7 µM and a TGI (A549 NSCLC) of 26.9 µM. For the same compound, the TGI (ACHN renal) was 24.9 µM, the TGI (BT-549 breast) was 23.8 µM and the TGI (CAKI-1 renal) was 19.2 µM. The TGI (CCRF-CEM leukemia) was 15.9 µM, the TGI (COLO 205 colon) was 30.8 µM and the TGI (DU-145 prostate) was 24.6 µM. It also gave a TGI (EKVX NSCLC) of 19.9 µM, a TGI (HCC-2998 colon) of 4.93 µM and a TGI (HCT-116 colon) of 17.7 µM. The TGI (HCT-15 colon) was 28.4 µM, the TGI (HL-60(TB) leukemia) was 5.42 µM and the TGI (HOP-62 NSCLC) was 27.4 µM. For the same compound, the TGI (HOP-92 NSCLC) was 11.8 µM, the TGI (HS 578T breast) was 27.3 µM and the TGI (HT29 colon) was 25.5 µM. The TGI (IGROV1 ovarian) was 31.3 µM, the TGI (K-562 leukemia) was 35 µM and the TGI (KM12 colon) was 25.4 µM. It also gave a TGI (LOX IMVI melanoma) of 19 µM, a TGI (M14 melanoma) of 18.3 µM and a TGI (MALME-3M melanoma) of 7.41 µM. It also gave a TGI (MCF7 breast) of 41.3 µM, a TGI (MDA-MB-231 breast) of 24.3 µM and a TGI (MDA-MB-435) of 13.6 µM. It also gave a TGI (MDA-N) of 14.5 µM, a TGI (MOLT-4 leukemia) of 5.45 µM and a TGI (NCI-H226 lung) of 34.7 µM. It also gave a TGI (NCI-H23 lung) of 37.2 µM, a TGI (NCI-H460 lung) of 23.7 µM and a TGI (NCI-H522 lung) of 19.1 µM. It also gave a TGI (NCI/ADR-RES ovarian) of 46.3 µM, a TGI (OVCAR-3 ovarian) of 16.9 µM and a TGI (OVCAR-4 ovarian) of 21.8 µM. The TGI (OVCAR-5 ovarian) was 12.6 µM, the TGI (OVCAR-8 ovarian) was 24.4 µM and the TGI (PC-3 prostate) was 18.4 µM. For the same compound, the TGI (RPMI-8226 leukemia) was 30.9 µM, the TGI (RXF 393 renal) was 24.2 µM and the TGI (SF-268 CNS) was 19.9 µM. The TGI (SF-295 CNS) was 31.8 µM, the TGI (SF-539 CNS) was 24.5 µM and the TGI (SK-MEL-2 melanoma) was 22.4 µM. The TGI (SK-MEL-28 melanoma) was 13.3 µM, the TGI (SK-MEL-5 melanoma) was 4.82 µM and the TGI (SK-OV-3 ovarian) was 28.5 µM. For the same compound, the TGI (SN12C renal) was 5.58 µM, the TGI (SNB-19 CNS) was 21.4 µM and the TGI (SNB-75 CNS) was 17.6 µM. The TGI (SR leukemia) was 21.5 µM, the TGI (SW-620 colon) was 25.4 µM and the TGI (T-47D breast) was 37 µM. For the same compound, the TGI (TK-10 renal) was 27.8 µM, the TGI (U251 CNS) was 16.8 µM and the TGI (UACC-257 melanoma) was 15.3 µM. For the same compound, the TGI (UACC-62 melanoma) was 24.1 µM and the TGI (UO-31 renal) was 18.3 µM.
